Reference: US7078434B1, “Use of Ginkgo extract” (Societe de Conseils de Recherches et d'Applications …, priority 1999, dated 2006)
“Also recorded” adds a separate entry of the source.

Key:
[1] = tested on: peripheral-type benzodiazepine receptor (PBR); assay: PBR ligand binding capacity of treated MDA-231 cells ([3H]PK 11195 saturation binding, Scatchard analysis); format: cell-based, human; conditions: % of control values
Excerpt: (§1) Cell Culture and Treatments. […] Radioligand Binding Assays. […] RNA (Northern) Analysis. […] Nucleic Acid Arrays. […] BrdU Cell Proliferation Assays. […] Analysis of oxidative stress. […] Biological Evaluation In Vivo. […] Immunocytochemistry of MDA-231 tumors. […] Statistical Analysis. […] (FIG. 5).

PBR mRNA = assay: RNA (Northern) blot analysis of PBR mRNA in MDA-231 cells; format: cell-based, human; conditions: 48 hours, 20 or 200 μg/ml EGB 761® or 2 or 20 μg/ml GKB
Excerpt: as §1

MCF-7 cells = assay: BrdU cell proliferation assay, MCF-7; format: cell-based, human; conditions: 48 hours, 20 or 200 μg/ml EGB 761® or 2 or 20 μg/ml GKB; compared with MDA-231
Excerpt: as §1

[2] = tested on: MDA-231 cell free radical production; assay: Analysis of oxidative stress (2,7-DCF fluorescent probe) in MDA-231 cells; format: cell-based, human
Excerpt: as §1

PBR = assay: Immunocytochemistry of MDA-231 tumors with anti-PBR antiserum; format: in vivo, human; conditions: 50 mg/kg EGB 761® per os or 1 mg/kg GKB ip
Protocol: Formalin embedded sections of MDA-231 xenografts were immunostained with an anti-PBR antiserum at 1:500 dilution as described in the Materials and Methods section. MDA-231 tumors were obtained from animals treated with vehicle (A–D), 50 mg/kg EGB 761® per os (E, G), or 1 mg/kg GKB ip (F, H). […] Arrowheads indicate nuclei. Magnification is ×75 for A, B, C, E, F, G, and H and ×150 for […].
as §1

MDA-231 cells [3] = assay: Additional cytotoxicity assays; format: cell-based; conditions: human
Excerpt: It is of interest to note that even in the presence of high concentrations of either EGB 761® or GKB, PBR levels and rates of cell proliferation could not be reduced below 30% of normal values. […] It should be also noted that even at the highest concentrations used, neither EGB 761® nor GKB were toxic for the cells, because cell proliferation recovered upon removal of the compounds.

MDA-231 cells [4] = assay: BrdU cell proliferation assay, MDA-231
Protocol: 4 h prior to the end of incubation, bromodeoxyuridine (BrdU) was added to each well. Incorporation of BrdU was measured at 450 nm (reference=700 nm). Data points represent the mean±S.D. of four independent experiments carried out in quadruplicate.
4 h prior to the end of incubation, bromodeoxyuridine (BrdU) was added to each well. Incorporation of BrdU was measured at 450 nm (reference=700 nm). Data points represent the mean±S.D. of two independent experiments carried out in quadruplicate.
MDA-231 cells grown in 96-well plates were washed with PBS and cultured in media supplemented with 10% FBS in the presence or absence of either 2 μg/ml or 20 μg/ml GKB for 48 hours. 4 h prior to the end of incubation, bromodeoxyuridine (BrdU) was added to each well. Incorporation of BrdU was measured at 450 nm (reference=700 nm). Data points represent the mean±S.D. of two independent experiments carried out in quadruplicate.
Cell lines were cultured on polystyrene culture dishes (Corning) and grown in Dulbecco's modified Eagle medium (DMEM) supplemented with 10% fetal bovine serum (FBS). […] BrdU Cell Proliferation Assays. MDA-231 cells were plated on 96-well plates (Corning, Corning, N.J.) at a concentration of approximately 10,000 cells/well (24 h incubation) or approximately 5,000 cells/well (48 h incubation) in DMEM supplemented with 0.1% FBS. […] Differences in cell proliferation were analyzed by measuring the amount of 5-bromo-2′deoxyuridine (BrdU) incorporation determined by the BrdU ELISA (Boehringer Mannheim, Indianapolis, Ind.). Incorporation of BrdU was measured at 450 nm (reference at 690 nm).

MDA-231 xenografts = assay: MDA-231 human breast cancer xenograft model in nude mice
Protocol: After the end of the treatment the animals were kept for 30 more days and then the animals were sacrificed on day 60. Data shown are means±S.E.M. (n=10).
Biological Evaluation In Vivo. […] Twice weekly tumor sizes and body weights were recorded for all animals for the 30 days of treatment as well for 30 days after the end of the treatment. At that time the animals were sacrificed and the tumors were removed and processed for immunohistochemistry. Animal care was in accordance with institutional guidelines. […] Statistical Analysis.

Structure (SMILES): C[C@@H]1C(=O)O[C@H]2[C@H](O)C34[C@H]5C[C@@H](C(C)(C)C)C36C(O)C(=O)O[C@H]6O[C@@]4(C(=O)O5)[C@@]12O (some centres unmarked) [GKB, ginkgolide B]
- decrease of PBR levels (PBR ligand binding capacity, Bmax) [1]: 66%
- PBR mRNA levels (PBR mRNA): reduced
- MCF-7 cell proliferation (BrdU incorporation) (MCF-7 cells): altered to a lesser degree
- effect on free radical / reactive oxygen species production [2]: absence of any significant decrease
- nuclear PBR expression in cells found in the middle of the tumor (PBR): reduced
- nuclear PBR expression in the cells at the edge of the tumors (PBR; cytosolic immunostaining could be seen): eliminated
- cell death (MDA-231 cells [3]): neither EGB 761® nor GKB induced any significant cell death
- MDA-231 cell proliferation (BrdU incorporation) (MDA-231 cells [4]; 10% FBS, EGB 761® up to 96 h, GKB 2 or 20 μg/ml 48 hours): significantly altered; also recorded: inhibited
- toxicity for the cells (recovery of proliferation upon removal) (MDA-231 cells [4]; highest concentrations used): cytostatic and not cytotoxic
- decrease in tumor size (MDA-231 xenografts; 1 mg/kg ip once a day for 30 days, measured a month after the end of the treatment, p=0.043): 32%
- animal body weight (MDA-231 xenografts; 30 days treatment, 50 mg/kg EGB 761® or 1 mg/kg GKB, data not shown): did not affect
